Assay results as given in patent US9617285B2, “1-hydroxy-benzooxaboroles as antiparasitic agents” (priority 2013, dated 2017).

Columns and labels:
Type in all cases: in vivo
Ancylostoma caninum = test: Experimental hookworm infections in dogs, A. caninum; settings: oral, point dose of no greater than 25 mg/kg bodyweight, by Day 3
Procedure: (§1) Activity of Example 1 Compound Against Experimental Hookworm Infections in Dogs
(§2) The antihelminthic activity of the Example 1 compound, when administered orally at a point dose of no greater than 25 mg/kg bodyweight, is evaluated against experimental infections of the hookworms Ancylostoma caninum and Uncinaria stenocephala in dogs. Four (4) beagle dogs in good health are inoculated with 3rd-stage infective larvae of each hookworm species, per W.A.A.V.P. Guidelines (Jacobs, D. E., A. Arakawa, C. H. Courtney, et al., 1994. Vet. Parasitol. 52: 179-202) so as to provide sufficient time for development of full patency. Fecal egg counts are conducted twice before treatment (Day-2 and Day-1). On Day 0, test article (technical active dissolved in 55-65% polyethylene glycol-300, 25-35% propylene glycol and 10-20% water) is administered to all four dogs via esophageal feeding tube. Fecal egg counts are conducted post-treatment on Days 3, 5 and 7. The average of two pre-treatment fecal egg counts is used for comparison to post-treatment egg counts for the purposes of calculating efficacy (geometric mean % reduction in fecal egg count) against each hookworm species.

Uncinaria stenocephala = test: Experimental hookworm infections in dogs, U. stenocephala; settings: oral, point dose of no greater than 25 mg/kg bodyweight, by Day 5
Procedure: as §1, §2

[1] = Tolerability of treatment in hookworm-infected dogs; settings: oral, point dose of no greater than 25 mg/kg bodyweight
Procedure: as §2

## C[C@](C#N)(COc1ccc2c(c1Cl)B(O)OC2)NC(=O)c1ccc(OC(F)(F)F)cc1 (single isomer, unassigned) [Example 1]
Ancylostoma caninum
  reduction in A. caninum fecal egg counts: > 50%
Uncinaria stenocephala
  reduction in U. stenocephala fecal egg count: > 50%
[1]
  tolerability of treatment: well tolerated
